Values of other authors in patent publication US6972133B1, “Degradable animal chewing article possessing enhanced safety, durability and mouth-feel” (Seefar Technologies, Inc., priority 1999, dated 2005).

Experiments:
[1] = system: fungi (including yeast) and algae; conditions: most active against fungi (including yeast) and algae

Structure (SMILES)	anti-microbial activity [1]	LD50 oral toxicity (dogs)	solubility in dilute alkali solution (dilute alkali solution)	solubility in ethanol (ethanol)	solubility in water (water, unmodified triclosan)
Cc1ccc(S(=O)(=O)C(I)I)cc1 [DIMTS, diiodomethyl-p-tolylsulphone]	broad spectrum of anti-microbial activity				
Oc1cc(Cl)ccc1Oc1ccc(Cl)cc1Cl [triclosan, 2,4,4″-trichloro-2-hydroxydiphenylether]		> 5000 mg/kg	sparingly soluble	soluble	insoluble
